Patent US20210317165A1, “ZP3 FRAGMENTS IN IMMUNOTHERAPY OF OVARIAN CANCER” (LABORATOIRE HRA-PHARMA, priority 2018, published 2021)

Test system: ZP3-specific TCD8
Assay: ELISPOT IFNγ of spleen TCD8 stimulated ex vivo with APC pulsed with each peptide separately
Format: in vivo, HLA-A2/DR1 transgenic mice
Settings: mice immunized with pool A+B, restimulation with each peptide separately
Experimental: HLA-A2/DR1 transgenic mice received three subcutaneous administrations of peptides pool and GM-CSF/CpG adjuvant as follow:
A first group (group 1) of mice received 100 μg/mice of a pool of peptides A+B (SEQ ID NO: 1, 2, 4, 5, 6, 10, 12, 13, 15 and 17) and GM-CSF adjuvant at Day 0 (D0). At D1, CpG wad injected. 100 μg/mice of pool of peptides A+B was injected at D14 and D30. Mice were sacrificed and analyzed at D40.
The ZP3-specific TCD8 response was measured by ex vivo stimulation of TCD8 from spleen of mice with APC pulsed with peptides (each peptides separately). The number of activated TCD8 cells was measured by ELISPOT IFNγ.

## FTVDVFHFA (Peptide of human ZP3) [Peptide 5, hZP3 fragment, position 263]
FIG. 2, listed as SEQ ID NO: 5
  ZP3-specific TCD8 response: strong specific TCD8 response (statistically significant)

## LRLMEENWNA (Peptide of human ZP3) [Peptide 6, hZP3 fragment, position 174]
FIG. 2, listed as SEQ ID NO: 6
  ZP3-specific TCD8 response: strong specific TCD8 response (statistically significant)

## NMIYITCHL (Peptide of human ZP3) [Peptide 13, hZP3 fragment, position 276]
FIG. 2, listed as SEQ ID NO: 13
  ZP3-specific TCD8 response: strong specific TCD8 response (statistically significant)
